# Reference: US5876694A, “Azavesamicols” (priority 1997, dated 1999)
# Where two headings read alike, the source gives them in different places.
# Test: Blocking experiment 2: effect of vesamicol pretreatment on radiotracer accumulation
# Format: in vivo, male Wistar rats
# Conditions: rat, iv, 2 uCi, 30 min postradiotracer
# Protocol: Two separate experiments each utilizing two groups of male Wistar rats (n=3) were performed. […]
# At time = 0, animals in group 1 injected intravenously with vehicle (50%)
# aq. EtOH; 0.2 ml), while animals in group 2 each received an i.v.
# injection of (dl)vesamicol. HCl (1.01 umol/Kg0). After 15 min, both group
# were injected with the radiotracer, allowed to recover and sacrificed 30
# min postradiotracer injection.
smiles,measurement,setting,value
"O[C@@H]1CCN(Cc2cccc([125I])c2)C[C@H]1N1CCC(c2ccccc2)CC1 (single isomer, unassigned) [(-)-[^125 I]12h, (+)- and (-)-4-hydroxy-1-(3-[I^125]iodobenzyl)-3-(4-phenyl-piperidinyl)piperidine]",tissue uptake at 0.5 h,"blood, Group 1: vehicle pretreatment, read-out: Accumulation after pretreatment, blood",0.11 %ID/g
same,tissue uptake at 0.5 h,"blood, Group 2: (dl)vesamicol.HCl 1.01 umol/Kg pretreatment, read-out: Accumulation after pretreatment, blood",0.12 %ID/g
same,tissue uptake at 0.5 h,"brain, Group 1: vehicle pretreatment, read-out: Accumulation after pretreatment, brain",0.68 %ID/g
same,tissue uptake at 0.5 h,"brain, Group 2: (dl)vesamicol.HCl 1.01 umol/Kg pretreatment, read-out: Accumulation after pretreatment, brain",0.34 %ID/g
same,tissue uptake at 0.5 h,"gonads, Group 1: vehicle pretreatment, read-out: Accumulation after pretreatment, gonads",0.15 %ID/g
same,tissue uptake at 0.5 h,"gonads, Group 2: (dl)vesamicol.HCl 1.01 umol/Kg pretreatment, read-out: Accumulation after pretreatment, gonads",0.16 %ID/g
same,tissue uptake at 0.5 h,"heart, Group 1: vehicle pretreatment, read-out: Accumulation after pretreatment, heart",0.59 %ID/g
same,tissue uptake at 0.5 h,"heart, Group 2: (dl)vesamicol.HCl 1.01 umol/Kg pretreatment, read-out: Accumulation after pretreatment, heart",0.3 %ID/g
same,tissue uptake at 0.5 h,"kidney, Group 1: vehicle pretreatment, read-out: Accumulation after pretreatment, kidney",2.45 %ID/g
same,tissue uptake at 0.5 h,"kidney, Group 2: (dl)vesamicol.HCl 1.01 umol/Kg pretreatment, read-out: Accumulation after pretreatment, kidney",1.13 %ID/g
same,tissue uptake at 0.5 h,"liver, Group 1: vehicle pretreatment, read-out: Accumulation after pretreatment, liver",1.91 %ID/g
same,tissue uptake at 0.5 h,"liver, Group 2: (dl)vesamicol.HCl 1.01 umol/Kg pretreatment, read-out: Accumulation after pretreatment, liver",1.89 %ID/g
same,tissue uptake at 0.5 h,"lung, Group 1: vehicle pretreatment, read-out: Accumulation after pretreatment, lung",2.36 %ID/g
same,tissue uptake at 0.5 h,"lung, Group 2: (dl)vesamicol.HCl 1.01 umol/Kg pretreatment, read-out: Accumulation after pretreatment, lung",1.59 %ID/g
same,tissue uptake at 0.5 h,"muscle, Group 1: vehicle pretreatment, read-out: Accumulation after pretreatment, muscle",0.18 %ID/g
same,tissue uptake at 0.5 h,"muscle, Group 2: (dl)vesamicol.HCl 1.01 umol/Kg pretreatment, read-out: Accumulation after pretreatment, muscle",0.16 %ID/g
same,tissue uptake at 0.5 h,"spleen, Group 1: vehicle pretreatment, read-out: Accumulation after pretreatment, spleen",1.05 %ID/g
same,tissue uptake at 0.5 h,"spleen, Group 2: (dl)vesamicol.HCl 1.01 umol/Kg pretreatment, read-out: Accumulation after pretreatment, spleen",0.8 %ID/g
same,tissue uptake at 0.5 h,"thyroid, Group 1: vehicle pretreatment, read-out: Accumulation after pretreatment, thyroid",2.62 %ID/g
same,tissue uptake at 0.5 h,"thyroid, Group 2: (dl)vesamicol.HCl 1.01 umol/Kg pretreatment, read-out: Accumulation after pretreatment, thyroid",4.56 %ID/g
